Experimental findings from patent publication US20210395210A1, “INHIBITION OF BACTERIAL CHAPERONIN SYSTEMS” (THE TRUSTEES OF INDIANA UNIVERSITY, priority 2018, published 2021) are described below.

Each structure is given as a SMILES string. Read-outs that look alike come from different tables or passages of the source. Some results are limits rather than exact numbers.

The assay concerns the target T1, E. coli GroEL/ES (Escherichia coli, UniProt P0A6F5).
T1 construct: made in house; host or cells: GroEL in E. coli DH5α; GroES in E. coli BL21 (DE3)
The experiment in a line: GroEL/ES-mediated dRho refolding assay. The assay is classed as biochemical. Here is the method:
Reagent preparation: For this assay, five primary reagent stocks were prepared: 1) GroEUES-dRho binary complex stock; 2) ATP initiation stock; 3) thiocyanate enzymatic assay stock; 4) formaldehyde quench stock; 5) ferric nitrate reporter stock. Denatured rhodanese (dRho) was prepared by 3-fold dilution of rhodanese (Roche product #R1756, diluted to 10 mg/mL with H2O) with denaturant buffer (12 M Urea, 50 mM Tris-HCl, pH 7.4, and 10 mM DTT). Rhodanese was completely denatured by incubating at room temperature for 45 min. The binary complex solution was prepared by slowly adding the dRho stock to a stirring stock of concentrated GroEL in modified folding buffer (50 mM Tris-HCl, pH 7.4, 50 mM KCl, 10 mM MgCl2, 5 mM Na2S2O3, and 1 mM DTT). The solution was centrifuged at 16,000×g for 5 minutes, and the supernatant was collected and added to a solution of GroES in modified folding buffer to give final protein concentrations of 100 nM GroEL, 120 nM GroES, and 80 nM dRho. The binary complex stock was prepared immediately prior to use. For the ATP initiation stock, ATP solid was diluted into modified folding buffer to a final concentration of 2.0 mM. The thiocyanate enzymatic assay stock was prepared to contain 70 mM KH2PO4, 80 mM KCN, and 80 mM Na2S2O3 in water. The formaldehyde quench solution contained 30% formaldehyde in water. The ferric nitrate reporter stock contained 8.5% w/v Fe(NO3)3 and 11.3% v/v HNO3 in water.
Assay Protocol: First, 10 μL aliquots of the GroEL/ES-dRho complex stock were dispensed into clear, 384-well polystyrene plates. […] The chaperonin-mediated refolding cycle was initiated by addition of 10 μL of ATP stock (reagent concentrations during refolding cycle: 50 nM GroEL, 60 nM GroES, 40 nM dRho, 1 mM ATP, and compounds of 250 μM to 114 nM, 3-fold dilution series). After incubating for 45 minutes at 37° C. for the refolding cycle, 30 μL of the thiocyanate enzymatic assay stock was added and incubated for 60 min at R.T. for the refolded rhodenase enzymatic reporter reaction. The reporter reaction was quenched by adding 10 μL of the formaldehyde quench stock, and then 40 μL of the ferric nitrate reporter stock was added to quantify the amount of thiocyanate produced during the enzymatic reporter reaction, which is proportional to the amount of dRho refolded by GroEL/ES. After incubating at R.T. for 15 min, the absorbance by Fe(SCN)3 was measured at 460 nm using a Molecular Devices SpectraMax Plus384 microplate reader. A second set of baseline control plates were prepared analogously, but without GroEL/ES-dRho protein binary solution, to correct for possible interference from compound absorbance or turbidity. […] Results presented represent the averages of IC50 values obtained from at least quadriplicate (duplicate of duplicate) replicates.
After generating the compound library, we next employed a series of well-established biochemical assays to evaluate compound inhibitory effects against the GroEUES chaperonin system (See FIG. 6 and FIG. 7). We used E. coli GroEUES as the surrogate chaperonin system for refolding of the reporter enzymes malate dehydrogenase (MDH) and rhodanese (Rho). Briefly, binary complexes are formed between GroEL and denatured MDH or Rho, which are then refolded to their native states upon addition of ATP and the GroES co-chaperonin. Enzymatic activities of refolded native MDH or Rho act as coupled reporters of GroEUES refolding functions since in the presence of chaperonin inhibitors, no functional reporter enzymes are generated.

Setting [1] is: read-out: Biochemical Assay IC50 GroEL/ES-dRho Refolding.
Where [2] appears, read: log of IC50 (μM scale), with standard deviation.

T1 sequence (P0A6F5 2-548): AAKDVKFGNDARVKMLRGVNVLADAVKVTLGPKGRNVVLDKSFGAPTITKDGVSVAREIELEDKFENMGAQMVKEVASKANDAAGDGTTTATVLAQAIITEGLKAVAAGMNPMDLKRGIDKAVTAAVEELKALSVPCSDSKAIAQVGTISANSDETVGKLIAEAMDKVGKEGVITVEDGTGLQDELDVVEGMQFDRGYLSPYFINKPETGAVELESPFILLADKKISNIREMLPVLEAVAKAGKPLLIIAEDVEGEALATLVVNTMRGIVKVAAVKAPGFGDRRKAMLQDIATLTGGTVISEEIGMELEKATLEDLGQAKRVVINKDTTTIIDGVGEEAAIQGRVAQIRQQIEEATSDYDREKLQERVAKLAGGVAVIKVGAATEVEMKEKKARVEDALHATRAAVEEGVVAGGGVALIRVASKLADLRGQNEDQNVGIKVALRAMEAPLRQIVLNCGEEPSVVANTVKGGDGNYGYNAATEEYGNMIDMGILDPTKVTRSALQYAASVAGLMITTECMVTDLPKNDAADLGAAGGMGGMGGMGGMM

On to `O=C(Nc1ccc(Sc2nc3ccccc3s2)cc1)c1cccc(Br)c1O` [Compound 6, N-(4-(Benzo[d]thiazol-2-ylthio)phenyl)-3-bromo-2-hydroxybenzamide], for which the IC50 by setting is: (log of IC50 (μM scale), with standard deviation, read-out: log(IC50) GroEL/ES-dRho Refolding (converted)) 13.8 µM; under setting [1], 14 µM.

The compound `O=C(Nc1ccc(Sc2nc3ccccc3s2)c(Cl)c1)c1cc(Br)cc(Br)c1` [Compound 17, N-(4-(Benzo[d]thiazol-2-ylthio)-3-chlorophenyl)-3,5-dibromobenzamide] had an IC50 greater than 100 µM.

As for `O=C(Nc1ccc(Sc2nc3ccccc3s2)cc1)c1cccc(Br)c1` [Compound 21, N-(4-(Benzo[d]thiazol-2-ylthio)phenyl)-3-bromobenzamide], the IC50 was greater than 100 µM. Turning to `COc1c(Br)cccc1C(=O)Nc1ccc(Sc2nc3ccccc3s2)c(Cl)c1` [Compound 30, N-(4-(Benzo[d]thiazol-2-ylthio)-3-chlorophenyl)-3-bromo-2-methoxybenzamide], the IC50 is greater than 100 µM.

The compound `O=C(Nc1cccc(Cl)c1)c1cccc(Br)c1` [Compound 24, 3-Bromo-N-(3-chlorophenyl)benzamide] yielded an IC50 greater than 100 µM. Also, the “log(IC50) GroEL/ES-dRho Refolding” value under setting [2] is listed as greater than 2.

On to `COc1ccc(Br)cc1C(=O)Nc1cccc(Cl)c1` [Compound 39, 5-Bromo-N-(3-chlorophenyl)-2-methoxybenzamide], for which the IC50 is greater than 100 µM. Also, under setting [2], the “log(IC50) GroEL/ES-dRho Refolding” value is reported as greater than 2. `O=C(Nc1cccc(Cl)c1)c1ccccc1O` [Compound 12, N-(3-Chlorophenyl)-2-hydroxybenzamide]: the IC50 is greater than 100 µM. For the same compound, the “log(IC50) GroEL/ES-dRho Refolding” value under setting [2] is recorded as greater than 2.

`COc1c(Br)cc(Br)cc1C(=O)Nc1ccccc1` [Compound 41, 3,5-Dibromo-2-methoxy-N-phenylbenzamide] had an IC50 greater than 100 µM. The “log(IC50) GroEL/ES-dRho Refolding” value under setting [2] is given as greater than 2. Turning to `O=C(Nc1cccc(Cl)c1)c1cc(Br)cc(Br)c1` [Compound 23, 3,5-Dibromo-N-(3-chlorophenyl)benzamide], the IC50 is greater than 100 µM. Under setting [2], the “log(IC50) GroEL/ES-dRho Refolding” value is given as greater than 2. `O=C(Nc1ccc(Sc2nc3ccccc3s2)cc1)c1cc(Br)cc(Br)c1` [Compound 20, N-(4-(Benzo[d]thiazol-2-ylthio)phenyl)-3,5-dibromobenzamide] showed an IC50 greater than 100 µM. Compound `O=C(Nc1ccccc1)c1cc(Br)cc(Br)c1` [Compound 26, 3,5-Dibromo-N-phenylbenzamide] returned an IC50 greater than 100 µM. Moreover, the “log(IC50) GroEL/ES-dRho Refolding” value under setting [2] is greater than 2. As for `O=C(Nc1ccc(Sc2nc3ccccc3s2)c(Cl)c1)c1cc(Br)ccc1O` [Compound 3, N-(4-(Benzo[d]thiazol-2-ylthio)-3-chlorophenyl)-5-bromo-2-hydroxybenzamide], the “log(IC50) GroEL/ES-dRho Refolding” value under setting [2] is reported as 1.04 ± 0.38. Also, under setting [1], the IC50 is 11 µM.

Regarding `O=C(Nc1ccc(Sc2nc3ccccc3s2)c(Cl)c1)c1cccc(Br)c1` [Compound 18, N-(4-(Benzo[d]thiazol-2-ylthio)-3-chlorophenyl)-3-bromobenzamide], the IC50 is greater than 100 µM. Regarding `COc1c(Br)cccc1C(=O)Nc1ccccc1` [Compound 42, 3-Bromo-2-methoxy-N-phenylbenzamide], the IC50 is greater than 100 µM. For the same compound, under setting [2], the “log(IC50) GroEL/ES-dRho Refolding” value is greater than 2. Compound `O=C(Nc1cccc(Cl)c1)c1ccccc1` [Compound 25, N-(3-Chlorophenyl)benzamide] showed an IC50 greater than 100 µM. Besides, under setting [2], the “log(IC50) GroEL/ES-dRho Refolding” value is recorded as greater than 2. `O=C(Nc1ccc(Sc2nc3ccccc3s2)cc1)c1ccccc1` [Compound 22, N-(4-(Benzo[d]thiazol-2-ylthio)phenyl)benzamide] had an IC50 greater than 100 µM. In turn, `COc1ccc(Br)cc1C(=O)Nc1ccc(Sc2nc3ccccc3s2)c(Cl)c1` [Compound 31, N-(4-(Benzo[d]thiazol-2-ylthio)-3-chlorophenyl)-5-bromo-2-methoxybenzamide] displayed an IC50 greater than 100 µM. As to `O=C(Nc1ccccc1)c1cccc(Br)c1` [Compound 27, 3-Bromo-N-phenylbenzamide], the IC50 is greater than 100 µM. For the same compound, under setting [2], the “log(IC50) GroEL/ES-dRho Refolding” value is recorded as greater than 2. The compound `O=C(Nc1ccc(Sc2nc3ccccc3s2)c(Cl)c1)c1ccccc1` [Compound 19, N-(4-(Benzo[d]thiazol-2-ylthio)-3-chlorophenyl)benzamide] registered an IC50 greater than 100 µM. Take `COc1ccccc1C(=O)Nc1cccc(Cl)c1` [Compound 40, N-(3-Chlorophenyl)-2-methoxybenzamide]: the IC50 is greater than 100 µM. In addition, the “log(IC50) GroEL/ES-dRho Refolding” value under setting [2] is given as greater than 2.

With `COc1ccc(Br)cc1C(=O)Nc1ccc(Sc2nc3ccccc3s2)cc1` [Compound 35, N-(4-(Benzo[d]thiazol-2-ylthio)phenyl)-5-bromo-2-methoxybenzamide], the IC50 was greater than 100 µM. `COc1c(Br)cc(Br)cc1C(=O)Nc1ccc(Sc2nc3ccccc3s2)cc1` [Compound 33, N-(4-(Benzo[d]thiazol-2-ylthio)phenyl)-3,5-dibromo-2-methoxybenzamide] gave an IC50 greater than 100 µM. As for `COc1c(Br)cc(Br)cc1C(=O)Nc1ccc(Sc2nc3ccccc3s2)c(Cl)c1` [Compound 29, N-(4-(Benzo[d]thiazol-2-ylthio)-3-chlorophenyl)-3,5-dibromo-2-methoxybenzamide], the IC50 was greater than 100 µM.

`COc1ccccc1C(=O)Nc1ccc(Sc2nc3ccccc3s2)c(Cl)c1` [Compound 32, N-(4-(Benzo[d]thiazol-2-ylthio)-3-chlorophenyl)-2-methoxybenzamide] returned an IC50 greater than 100 µM. Consider `O=C(Nc1ccccc1)c1cccc(Br)c1O` [Compound 14, 3-Bromo-2-hydroxy-N-phenylbenzamide], for which the IC50 was greater than 100 µM. For the same compound, under setting [2], the “log(IC50) GroEL/ES-dRho Refolding” value is given as greater than 2. Compound `COc1ccccc1C(=O)Nc1ccccc1` [Compound 44, 2-Methoxy-N-phenylbenzamide] gave an IC50 greater than 100 µM. In addition, the “log(IC50) GroEL/ES-dRho Refolding” value under setting [2] is reported as greater than 2. On to `COc1ccccc1C(=O)Nc1ccc(Sc2nc3ccccc3s2)cc1` [Compound 36, N-(4-(Benzo[d]thiazol-2-ylthio)phenyl)-2-methoxybenzamide], for which the IC50 is greater than 100 µM. Regarding `O=C(Nc1ccc(Sc2nc3ccccc3s2)c(Cl)c1)c1ccccc1O` [Compound 4, N-(4-(Benzo[d]thiazol-2-ylthio)-3-chlorophenyl)-2-hydroxybenzamide], the “log(IC50) GroEL/ES-dRho Refolding” value under setting [2] is 1.80 ± 0.27. Besides, the IC50 under setting [1] is 63 µM. With `O=C(Nc1ccc(Sc2nc3ccccc3s2)cc1)c1cc(Br)ccc1O` [Compound 7, N-(4-(Benzo[d]thiazol-2-ylthio)phenyl)-5-bromo-2-hydroxybenzamide], under setting [2], the “log(IC50) GroEL/ES-dRho Refolding” value is on record as 1.48 ± 0.11. Moreover, the IC50 under setting [1] worked out at 30 µM. Regarding `O=C(Nc1ccccc1)c1cc(Br)ccc1O` [Compound 15, 5-Bromo-2-hydroxy-N-phenylbenzamide], the IC50 is greater than 100 µM. Further, the “log(IC50) GroEL/ES-dRho Refolding” value under setting [2] is greater than 2. For `COc1c(Br)cc(Br)cc1C(=O)Nc1cccc(Cl)c1` [Compound 37, 3,5-Dibromo-N-(3-chlorophenyl)-2-methoxybenzamide], in that order: greater than 100 µM and greater than 2. The compound `COc1ccc(Br)cc1C(=O)Nc1ccccc1` [Compound 43, 5-Bromo-2-methoxy-N-phenylbenzamide] displayed an IC50 greater than 100 µM. The “log(IC50) GroEL/ES-dRho Refolding” value under setting [2] is greater than 2. `COc1c(Br)cccc1C(=O)Nc1cccc(Cl)c1` [Compound 38]: the IC50 was greater than 100 µM. For the same compound, under setting [2], the “log(IC50) GroEL/ES-dRho Refolding” value is reported as greater than 2.
